#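 Five compound concentrations were applied to cells in 96-well plates for 48 hours; endpoints were derived by simple linear interpolation of the resulting dose-response curve. GI50 is the concentration that inhibits growth by half. TGI: concentration producing complete growth inhibition.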
# Test system: NCI-H23 lung
# Assay: DTP human tumour cell line panel, 48 h
Compound,TGI,GI50
COc1ccccc1N/C(SCc1ccccc1)=C(/C(Cl)=C(Cl)Cl)[N+](=O)[O-],31.7 µM,–
O=[N+]1[C@H](c2ccccc2)[C@H](c2ccccc2)N1[O-],32 µM,–
COC(=O)c1ccc2c(c1)CC1(C2)Cc2ccccc2C1=O (stereo unspecified),> 100 µM,–
C[C@@H]1CCc2ncc(F)cc2[C@H]2CCCN2c2ccn3ncc(c3n2)C(=O)N1,> 100 µM,> 100 µM

# Test system: HCT-15 colon
# Assay: DTP human tumour cell line panel, 48 h
Compound,TGI,GI50
C1CSCC2(COC2)CSCCSCC2(COC2)CS1,> 100 µM,–
Cc1cc(-c2nc3c(F)cccc3s2)ccc1N,> 100 µM,–
COc1ccccc1N/C(SCc1ccccc1)=C(/C(Cl)=C(Cl)Cl)[N+](=O)[O-],49.8 µM,–
O=[N+]1[C@H](c2ccccc2)[C@H](c2ccccc2)N1[O-],24.7 µM,–
COC(=O)c1ccc2c(c1)CC1(C2)Cc2ccccc2C1=O (stereo unspecified),> 100 µM,–
C[C@@H]1CCc2ncc(F)cc2[C@H]2CCCN2c2ccn3ncc(c3n2)C(=O)N1,> 100 µM,77.1 µM

# Test system: MDA-MB-231 breast
# Assay: DTP human tumour cell line panel, 48 h
Compound,TGI,GI50
C1CSCC2(COC2)CSCCSCC2(COC2)CS1,> 100 µM,–
Cc1cc(-c2nc3c(F)cccc3s2)ccc1N,> 100 µM,–
COc1ccccc1N/C(SCc1ccccc1)=C(/C(Cl)=C(Cl)Cl)[N+](=O)[O-],48.4 µM,–
O=[N+]1[C@H](c2ccccc2)[C@H](c2ccccc2)N1[O-],38.2 µM,–
COC(=O)c1ccc2c(c1)CC1(C2)Cc2ccccc2C1=O (stereo unspecified),84.8 µM,–
C[C@@H]1CCc2ncc(F)cc2[C@H]2CCCN2c2ccn3ncc(c3n2)C(=O)N1,> 100 µM,29.9 µM

# Test system: OVCAR-4 ovarian
# Assay: DTP human tumour cell line panel, 48 h
Compound,TGI,GI50
C1CSCC2(COC2)CSCCSCC2(COC2)CS1,> 100 µM,–
Cc1cc(-c2nc3c(F)cccc3s2)ccc1N,> 100 µM,20.9 µM
COc1ccccc1N/C(SCc1ccccc1)=C(/C(Cl)=C(Cl)Cl)[N+](=O)[O-],47.7 µM,–
O=[N+]1[C@H](c2ccccc2)[C@H](c2ccccc2)N1[O-],59.2 µM,–
COC(=O)c1ccc2c(c1)CC1(C2)Cc2ccccc2C1=O (stereo unspecified),> 100 µM,–
C[C@@H]1CCc2ncc(F)cc2[C@H]2CCCN2c2ccn3ncc(c3n2)C(=O)N1,> 100 µM,62.4 µM

# Test system: OVCAR-5 ovarian
# Assay: DTP human tumour cell line panel, 48 h
Compound,TGI,GI50
C1CSCC2(COC2)CSCCSCC2(COC2)CS1,> 100 µM,–
Cc1cc(-c2nc3c(F)cccc3s2)ccc1N,76.2 µM,1.68 µM
COc1ccccc1N/C(SCc1ccccc1)=C(/C(Cl)=C(Cl)Cl)[N+](=O)[O-],> 100 µM,–
O=[N+]1[C@H](c2ccccc2)[C@H](c2ccccc2)N1[O-],35.8 µM,–
COC(=O)c1ccc2c(c1)CC1(C2)Cc2ccccc2C1=O (stereo unspecified),> 100 µM,–
C[C@@H]1CCc2ncc(F)cc2[C@H]2CCCN2c2ccn3ncc(c3n2)C(=O)N1,> 100 µM,> 100 µM

# Test system: HCC-2998 colon
# Assay: DTP human tumour cell line panel, 48 h
Compound,TGI,GI50
C1CSCC2(COC2)CSCCSCC2(COC2)CS1,> 100 µM,–
Cc1cc(-c2nc3c(F)cccc3s2)ccc1N,> 100 µM,> 100 µM
COC(=O)c1ccc2c(c1)CC1(C2)Cc2ccccc2C1=O (stereo unspecified),> 100 µM,–
C[C@@H]1CCc2ncc(F)cc2[C@H]2CCCN2c2ccn3ncc(c3n2)C(=O)N1,> 100 µM,> 100 µM

# Test system: OVCAR-3 ovarian
# Assay: DTP human tumour cell line panel, 48 h
Compound,TGI,GI50
C1CSCC2(COC2)CSCCSCC2(COC2)CS1,> 100 µM,–
Cc1cc(-c2nc3c(F)cccc3s2)ccc1N,> 100 µM,–
COc1ccccc1N/C(SCc1ccccc1)=C(/C(Cl)=C(Cl)Cl)[N+](=O)[O-],40.7 µM,–
O=[N+]1[C@H](c2ccccc2)[C@H](c2ccccc2)N1[O-],30.1 µM,–
COC(=O)c1ccc2c(c1)CC1(C2)Cc2ccccc2C1=O (stereo unspecified),> 100 µM,–
C[C@@H]1CCc2ncc(F)cc2[C@H]2CCCN2c2ccn3ncc(c3n2)C(=O)N1,> 100 µM,88.6 µM

# Test system: 786-0 renal
# Assay: DTP human tumour cell line panel, 48 h
Compound,TGI,GI50
C1CSCC2(COC2)CSCCSCC2(COC2)CS1,> 100 µM,–
Cc1cc(-c2nc3c(F)cccc3s2)ccc1N,> 100 µM,–
COc1ccccc1N/C(SCc1ccccc1)=C(/C(Cl)=C(Cl)Cl)[N+](=O)[O-],97.8 µM,–
O=[N+]1[C@H](c2ccccc2)[C@H](c2ccccc2)N1[O-],26.8 µM,–
COC(=O)c1ccc2c(c1)CC1(C2)Cc2ccccc2C1=O (stereo unspecified),> 100 µM,–
C[C@@H]1CCc2ncc(F)cc2[C@H]2CCCN2c2ccn3ncc(c3n2)C(=O)N1,> 100 µM,63 µM

# Test system: DU-145 prostate
# Assay: DTP human tumour cell line panel, 48 h
Compound,TGI,GI50
C1CSCC2(COC2)CSCCSCC2(COC2)CS1,> 100 µM,–
Cc1cc(-c2nc3c(F)cccc3s2)ccc1N,> 100 µM,–
COc1ccccc1N/C(SCc1ccccc1)=C(/C(Cl)=C(Cl)Cl)[N+](=O)[O-],> 100 µM,–
O=[N+]1[C@H](c2ccccc2)[C@H](c2ccccc2)N1[O-],30.1 µM,–
COC(=O)c1ccc2c(c1)CC1(C2)Cc2ccccc2C1=O (stereo unspecified),> 100 µM,–
C[C@@H]1CCc2ncc(F)cc2[C@H]2CCCN2c2ccn3ncc(c3n2)C(=O)N1,> 100 µM,73.7 µM

# Test system: SR leukemia
# Assay: DTP human tumour cell line panel, 48 h
Compound,TGI,GI50
C1CSCC2(COC2)CSCCSCC2(COC2)CS1,> 100 µM,–
Cc1cc(-c2nc3c(F)cccc3s2)ccc1N,> 100 µM,–
O=[N+]1[C@H](c2ccccc2)[C@H](c2ccccc2)N1[O-],37.7 µM,–
COC(=O)c1ccc2c(c1)CC1(C2)Cc2ccccc2C1=O (stereo unspecified),65.7 µM,–
C[C@@H]1CCc2ncc(F)cc2[C@H]2CCCN2c2ccn3ncc(c3n2)C(=O)N1,> 100 µM,4.38 µM

# Test system: NCI-H460 lung
# Assay: DTP human tumour cell line panel, 48 h
Compound,TGI,GI50
C1CSCC2(COC2)CSCCSCC2(COC2)CS1,> 100 µM,–
COc1ccccc1N/C(SCc1ccccc1)=C(/C(Cl)=C(Cl)Cl)[N+](=O)[O-],> 100 µM,–
O=[N+]1[C@H](c2ccccc2)[C@H](c2ccccc2)N1[O-],43.2 µM,–
COC(=O)c1ccc2c(c1)CC1(C2)Cc2ccccc2C1=O (stereo unspecified),> 100 µM,–
C[C@@H]1CCc2ncc(F)cc2[C@H]2CCCN2c2ccn3ncc(c3n2)C(=O)N1,> 100 µM,> 100 µM

# Test system: SW-620 colon
# Assay: DTP human tumour cell line panel, 48 h
Compound,TGI,GI50
C1CSCC2(COC2)CSCCSCC2(COC2)CS1,> 100 µM,–
Cc1cc(-c2nc3c(F)cccc3s2)ccc1N,> 100 µM,–
COc1ccccc1N/C(SCc1ccccc1)=C(/C(Cl)=C(Cl)Cl)[N+](=O)[O-],31.7 µM,–
O=[N+]1[C@H](c2ccccc2)[C@H](c2ccccc2)N1[O-],28.2 µM,–
COC(=O)c1ccc2c(c1)CC1(C2)Cc2ccccc2C1=O (stereo unspecified),> 100 µM,–
C[C@@H]1CCc2ncc(F)cc2[C@H]2CCCN2c2ccn3ncc(c3n2)C(=O)N1,> 100 µM,> 100 µM

# Test system: BT-549 breast
# Assay: DTP human tumour cell line panel, 48 h
Compound,TGI,GI50
C1CSCC2(COC2)CSCCSCC2(COC2)CS1,> 100 µM,–
Cc1cc(-c2nc3c(F)cccc3s2)ccc1N,> 100 µM,–
COc1ccccc1N/C(SCc1ccccc1)=C(/C(Cl)=C(Cl)Cl)[N+](=O)[O-],32.9 µM,–
C[C@@H]1CCc2ncc(F)cc2[C@H]2CCCN2c2ccn3ncc(c3n2)C(=O)N1,> 100 µM,69.8 µM

# Test system: SK-OV-3 ovarian
# Assay: DTP human tumour cell line panel, 48 h
Compound,TGI,GI50
C1CSCC2(COC2)CSCCSCC2(COC2)CS1,> 100 µM,–
Cc1cc(-c2nc3c(F)cccc3s2)ccc1N,> 100 µM,–
COc1ccccc1N/C(SCc1ccccc1)=C(/C(Cl)=C(Cl)Cl)[N+](=O)[O-],> 100 µM,–
O=[N+]1[C@H](c2ccccc2)[C@H](c2ccccc2)N1[O-],96.5 µM,–
COC(=O)c1ccc2c(c1)CC1(C2)Cc2ccccc2C1=O (stereo unspecified),> 100 µM,–
C[C@@H]1CCc2ncc(F)cc2[C@H]2CCCN2c2ccn3ncc(c3n2)C(=O)N1,> 100 µM,91.7 µM

# Test system: SF-539 CNS
# Assay: DTP human tumour cell line panel, 48 h
row,Compound,TGI
1,C1CSCC2(COC2)CSCCSCC2(COC2)CS1,> 100 µM
2,COc1ccccc1N/C(SCc1ccccc1)=C(/C(Cl)=C(Cl)Cl)[N+](=O)[O-],31.1 µM
3,O=[N+]1[C@H](c2ccccc2)[C@H](c2ccccc2)N1[O-],32.7 µM

# From PubChem BioAssay (NCI)
